Data on 13 molecules can be found in patent US20150232876A1, “Use of a Receptor Kinase Having LysM Motifs in Order to Improve the Response of Plants to Lipochitooligosaccharides” (INSTITUT NATIONAL DE LA RECHERCHE AGRONOMIQUE, priority 2012, published 2015).

In one assay the target is LYR3 (Medicago truncatula, UniProt G7KAT5). Nature of the assay: Saturation and competitive binding on LYR3-YFP expressed in N. benthamiana leaf membrane fractions. To be noted: for Ki: LYR3-YFP in N. benthamiana leaf membranes, competition with 0.9 nM LCO-IV(35S, C16:2Δ2,9), read-out: Affinity (nM) for LYR3 (Ki); for affinity / competition for binding to LYR3 (in words): competition with radioactive LCO. An excerpt:
Genes LYR3, LYK9 and LYR6 were inserted into a binary vector, fused in C-terminal with a fluorescent protein (Yellow Fluorescent Protein: YFP) and introduced into Nicotiana benthamiana leaves using agroinfiltration by Agrobacterium tumefaciens. Meanwhile, NFP and LYK3 genes which encode putative receptors […] Nod factors were inserted into the same vectors and expressed in the same conditions.
3 days after agro-infiltration, leaves of N. benthamiana expressing the different constructs were harvested and ground in liquid nitrogen. Membrane fractions were prepared from the ground material, using the same protocol as that described above for the preparation of microsomal fractions, except that 0.6% (w/v) of polyvinyl-polypyrrolidone were added to extraction buffer. After centrifugation at 3000×g, the supernatant was collected and centrifuged at 45000×g. The resulting (membrane fraction) pellet was resuspended in binding buffer, and stored at −80° C. in the presence of 10% or 50% glycerol, until use.
Membrane proteins were separated by 10% polyacrylamide gel electrophoresis in SDS, and transferred onto nitrocellulose membrane, and detection of recombinant proteins made using anti-GFP antibody. Meanwhile, the properties of specific binding to LCOs were assessed by equilibrium binding, as described in Example 1, using 0.8 to 2.4 nM of LCO-IV (^35S, C16:2Δ2, 9) +/−2 μM of unlabeled LCO-IV (S, C16: 2Δ2, 9), and 25 micrograms to 80 micrograms of membrane protein, depending of the expression level of the protein labeled with YFP.
To further characterize the binding properties of the protein LYR3, saturation binding experiments using LCO-IV (^35S, C16:2Δ2, 9) and competitive binding experiments in the presence of different COs or LCOs were performed.

A further assay has as its target PsLYR3 (Lathyrus oleraceus, UniProt A0A9D5BD18). Nature of the assay: Equilibrium, saturation and competitive binding on MtLYR3 ortholog expressed in N. benthamiana leaves. Also on record: species or system Pisum sativum. To be noted: PsLYR3; for Ki: read-out: Affinity (Ki). The text has this: (§1) In legumes, MtLYR3 orthologs have been identified in P. sativum, P. vulgaris and L. japonicus. In G. max orthologs exist in duplicate due to a duplication of the genome. The corresponding genes have been cloned and sequenced. A few differences in sequence compared with sequences in the databases were found which could be explained by the use of different varieties of plants or by sequencing errors in databases. The cloned genes were introduced into binary vectors, in C-terminal fusion with the fluorescent protein YFP, and introduced into Nicotiana benthamiana leaves using agroinfiltration by Agrobacterium tumefaciens, as described above in Example 3. The membrane fractions were isolated, their protein content was analyzed by electrophoresis under denaturing conditions, followed by immunodetection using anti-GFP antibody as described in Example 3, and their ability to interact with LCOs was determined by equilibrium binding, as described in Example 1, in the presence of 1 nM LCO-IV (S^35, C16:2Δ2, 9). The value of specific binding is determined by the value of difference between the total binding and the nonspecific binding obtained for incubation in the presence of an excess (2 μM) of unlabeled ligand. For comparison, the ability to interact of LjNFR5 and LjNFR1 receptors, identified in L. japonicus to play a role in nodulation by a genetic approach (MADSEN et al, Nature, 425, 637-40, 2003. RADUTOIU et al., Nature, 425, 585-92, 2003a) and respective orthologs of LYK3 and NFP in M. truncatula was determined under the same conditions.
(§2) To further characterize the binding properties of MtLYR3 orthologs to LCOs, saturation and competitive binding experiments in the presence of different COs or LCOs were performed.

The target in the next assay is GmLYR3-11 (Glycine max, UniProt I1LHL9). The description is as above. To be noted: GmLYR3-11; for Ki: read-out: Affinity (Ki).
Excerpt: as §1, §2

Another assay addresses LjLYS12 (Lotus japonicus, UniProt D3KTZ9). Described as above. To be noted: LjLYS12; for Ki: read-out: Affinity (Ki).
Excerpt: as §1, §2

In another assay the target is PvLYR3 (Phaseolus vulgaris, UniProt V7CFC1). The assay is described as above. To be noted: PvLYR3; for Ki: read-out: Affinity (Ki).
Excerpt: as §1, §2

Another assay deals with GmLYR3-1 (Glycine max, UniProt A5YJW2). The description is as above. To be noted: GmLYR3-1; for Ki: read-out: Affinity (Ki).
Excerpt: as §1, §2

The subject of assay [1] is 100 kDa polypeptide (MtNFBS2). Nature of the assay: Photolabeling of the 100 kDa polypeptide in membrane fractions, with excess competitors. In kind it is binding, Medicago truncatula. To be noted: 2 μM competitor, 5 nM azido ligand, dmi3 membrane fraction. The text has this:
To assess the molecular mass of the affine protein of Nod factors responsible for binding properties of MtNFBS2, a photolabeling with Nod factors analogs containing a photoactivatable group, which after irradiation in a given wavelength reactive species which can form a covalent bond with the surrounding molecules, has been taken. […] homologues of these molecules have been synthesized and labeled with ^35S to enable detection of the stable complex ligand/binding protein.
For photolabeling, 5 nM of radioactive and photoactivatable ligand, alone or in the presence of an excess (2 μM) different competitors were incubated in binding buffer, in the same conditions as described in Example 1 above for the binding experiments at equilibrium, with 300 micrograms of membrane protein fraction obtained from cultured cells of wild-type Medicago truncatula (A 17), or the dmi3 mutant of Medicago truncatula. After 1 hour of incubation, the samples were irradiated for 5 min at 254 nm or 10 min at 365 nm with a fluorescent tube at a distance of 4 cm. The free ligand was removed by centrifugation, and the membrane pellet was washed two times in binding buffer.
The membrane pellet proteins were separated by polyacrylamide gel electrophoresis in 10% SDS, and transferred onto nitrocellulose membrane, and detection was carried out by autoradiography.

GmLYR3-11, sequence (I1LHL9 entry or part of it): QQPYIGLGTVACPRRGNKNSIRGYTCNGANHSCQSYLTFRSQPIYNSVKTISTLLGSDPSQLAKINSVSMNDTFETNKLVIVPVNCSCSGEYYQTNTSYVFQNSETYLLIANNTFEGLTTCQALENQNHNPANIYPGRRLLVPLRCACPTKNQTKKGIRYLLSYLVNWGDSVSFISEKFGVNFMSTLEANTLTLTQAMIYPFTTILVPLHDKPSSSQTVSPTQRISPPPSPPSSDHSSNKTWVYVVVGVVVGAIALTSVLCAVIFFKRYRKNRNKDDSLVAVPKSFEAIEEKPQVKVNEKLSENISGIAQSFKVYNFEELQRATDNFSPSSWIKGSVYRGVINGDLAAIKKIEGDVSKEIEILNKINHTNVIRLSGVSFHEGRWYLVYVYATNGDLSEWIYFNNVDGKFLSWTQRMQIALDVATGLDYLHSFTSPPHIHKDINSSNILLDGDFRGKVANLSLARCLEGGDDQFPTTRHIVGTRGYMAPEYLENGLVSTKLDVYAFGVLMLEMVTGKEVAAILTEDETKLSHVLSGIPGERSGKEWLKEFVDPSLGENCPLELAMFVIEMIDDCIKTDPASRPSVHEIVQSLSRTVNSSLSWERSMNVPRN
PsLYR3, sequence (A0A9D5BD18 entry or part of it): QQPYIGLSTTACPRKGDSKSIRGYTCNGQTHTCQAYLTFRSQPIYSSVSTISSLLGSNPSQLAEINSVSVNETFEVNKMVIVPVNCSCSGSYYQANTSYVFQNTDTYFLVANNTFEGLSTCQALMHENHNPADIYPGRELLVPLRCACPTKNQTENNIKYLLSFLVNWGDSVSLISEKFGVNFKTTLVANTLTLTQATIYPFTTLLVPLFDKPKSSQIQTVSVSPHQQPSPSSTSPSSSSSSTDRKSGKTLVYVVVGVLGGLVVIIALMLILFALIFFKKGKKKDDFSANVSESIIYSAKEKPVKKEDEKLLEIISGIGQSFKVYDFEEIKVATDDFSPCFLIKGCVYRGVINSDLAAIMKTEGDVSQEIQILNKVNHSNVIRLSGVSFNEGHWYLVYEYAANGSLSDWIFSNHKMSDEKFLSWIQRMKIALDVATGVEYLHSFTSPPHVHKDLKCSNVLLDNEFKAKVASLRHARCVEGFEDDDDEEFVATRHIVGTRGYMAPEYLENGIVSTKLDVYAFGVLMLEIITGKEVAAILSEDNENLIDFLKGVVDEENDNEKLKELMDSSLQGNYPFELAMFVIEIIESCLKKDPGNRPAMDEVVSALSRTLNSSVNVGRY
LjLYS12, sequence (D3KTZ9 entry or part of it): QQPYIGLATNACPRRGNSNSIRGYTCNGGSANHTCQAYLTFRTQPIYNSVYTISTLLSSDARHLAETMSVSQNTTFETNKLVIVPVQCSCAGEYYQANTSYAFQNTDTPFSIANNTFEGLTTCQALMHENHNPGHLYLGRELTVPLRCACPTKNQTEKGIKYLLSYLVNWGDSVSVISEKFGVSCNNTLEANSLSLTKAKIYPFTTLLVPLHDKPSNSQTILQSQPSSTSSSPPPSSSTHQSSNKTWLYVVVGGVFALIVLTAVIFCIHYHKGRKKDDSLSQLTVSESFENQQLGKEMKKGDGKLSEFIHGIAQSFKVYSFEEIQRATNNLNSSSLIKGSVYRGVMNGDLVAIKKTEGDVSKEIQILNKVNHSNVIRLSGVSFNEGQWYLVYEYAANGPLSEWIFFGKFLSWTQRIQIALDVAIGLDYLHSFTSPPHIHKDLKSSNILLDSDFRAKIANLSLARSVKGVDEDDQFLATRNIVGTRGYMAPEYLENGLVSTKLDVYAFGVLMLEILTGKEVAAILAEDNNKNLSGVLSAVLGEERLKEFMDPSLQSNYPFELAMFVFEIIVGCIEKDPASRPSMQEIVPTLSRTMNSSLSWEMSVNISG
LYR3, sequence (G7KAT5 entry or part of it): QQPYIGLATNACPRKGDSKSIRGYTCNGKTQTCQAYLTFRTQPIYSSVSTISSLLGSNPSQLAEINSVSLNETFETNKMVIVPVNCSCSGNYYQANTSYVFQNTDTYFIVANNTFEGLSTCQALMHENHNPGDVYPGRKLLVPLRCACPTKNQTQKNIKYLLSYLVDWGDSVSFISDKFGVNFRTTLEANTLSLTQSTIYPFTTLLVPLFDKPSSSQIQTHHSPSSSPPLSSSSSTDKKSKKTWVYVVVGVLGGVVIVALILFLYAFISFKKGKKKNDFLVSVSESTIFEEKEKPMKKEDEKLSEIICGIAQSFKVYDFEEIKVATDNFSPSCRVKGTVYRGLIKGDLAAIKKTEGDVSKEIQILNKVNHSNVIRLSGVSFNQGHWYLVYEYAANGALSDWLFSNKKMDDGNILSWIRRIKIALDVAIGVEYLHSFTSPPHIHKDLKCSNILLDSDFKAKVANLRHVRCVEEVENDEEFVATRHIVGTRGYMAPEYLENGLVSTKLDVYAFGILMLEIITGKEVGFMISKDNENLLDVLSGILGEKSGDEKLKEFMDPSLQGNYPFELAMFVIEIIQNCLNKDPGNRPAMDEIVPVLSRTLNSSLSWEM
PvLYR3, sequence (V7CFC1 entry or part of it): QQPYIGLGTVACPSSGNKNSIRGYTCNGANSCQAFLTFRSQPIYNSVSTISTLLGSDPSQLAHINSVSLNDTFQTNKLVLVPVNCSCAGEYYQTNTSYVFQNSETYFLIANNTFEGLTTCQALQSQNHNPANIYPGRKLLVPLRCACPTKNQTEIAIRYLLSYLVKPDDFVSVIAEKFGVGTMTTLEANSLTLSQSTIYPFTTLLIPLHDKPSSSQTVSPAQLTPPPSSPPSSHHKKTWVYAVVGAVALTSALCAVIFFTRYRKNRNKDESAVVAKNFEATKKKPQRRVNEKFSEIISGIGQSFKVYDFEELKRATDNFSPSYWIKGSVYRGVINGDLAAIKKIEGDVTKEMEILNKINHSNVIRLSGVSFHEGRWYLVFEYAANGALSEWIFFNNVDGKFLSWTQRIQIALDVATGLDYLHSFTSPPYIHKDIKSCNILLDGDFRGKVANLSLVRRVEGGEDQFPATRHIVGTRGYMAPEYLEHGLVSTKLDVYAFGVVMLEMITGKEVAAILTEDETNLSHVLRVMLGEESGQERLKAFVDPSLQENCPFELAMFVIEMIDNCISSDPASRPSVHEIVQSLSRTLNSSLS
GmLYR3-1, sequence (A5YJW2 entry or part of it): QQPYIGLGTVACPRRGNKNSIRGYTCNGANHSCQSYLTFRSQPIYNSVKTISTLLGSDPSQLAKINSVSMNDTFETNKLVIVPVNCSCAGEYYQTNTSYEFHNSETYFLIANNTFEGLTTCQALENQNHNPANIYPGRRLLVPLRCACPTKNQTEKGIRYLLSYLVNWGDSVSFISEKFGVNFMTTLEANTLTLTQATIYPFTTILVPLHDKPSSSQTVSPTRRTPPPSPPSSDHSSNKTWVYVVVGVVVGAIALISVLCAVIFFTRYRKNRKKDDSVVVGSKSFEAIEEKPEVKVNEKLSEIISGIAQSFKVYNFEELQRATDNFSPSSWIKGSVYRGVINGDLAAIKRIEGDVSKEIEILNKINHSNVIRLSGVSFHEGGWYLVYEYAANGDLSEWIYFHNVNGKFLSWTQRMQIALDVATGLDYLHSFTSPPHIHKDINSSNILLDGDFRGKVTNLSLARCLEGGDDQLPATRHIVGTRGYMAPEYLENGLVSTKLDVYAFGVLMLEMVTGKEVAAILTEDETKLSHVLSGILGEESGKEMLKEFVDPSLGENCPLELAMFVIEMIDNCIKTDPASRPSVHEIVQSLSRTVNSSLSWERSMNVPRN

In the case of `CC(=O)N[C@H]1[C@H](O[C@H]2[C@H](O)[C@@H](NC(C)=O)[C@H](O[C@H]3[C@H](O)[C@@H](NC(C)=O)C(O)O[C@@H]3CO)O[C@@H]2CO)O[C@H](CO)[C@@H](O[C@@H]2O[C@H](CO)[C@@H](O[C@@H]3O[C@H](CO)[C@@H](O)[C@H](O)[C@H]3NC(C)=O)[C@H](O)[C@H]2NC(C)=O)[C@@H]1O` (stereo partly drawn) [CO-V], the inhibition constant Ki is 12000 nM at LYR3; more than 10000 nM on PsLYR3; more than 10000 nM on GmLYR3-11; more than 10000 nM at LjLYS12; more than 10000 nM on PvLYR3; more than 10000 nM on GmLYR3-1.

Turning to `CCCCCC/C=C\CCCCCCCC(=O)N[C@H]1[C@H](O[C@H]2[C@H](O)[C@@H](NC(C)=O)[C@H](O[C@H]3[C@H](O)[C@@H](NC(C)=O)C(O)O[C@@H]3CO)O[C@@H]2CO)O[C@H](CO)[C@@H](O)[C@@H]1O` (stereo partly drawn) [LCO-III(C16:1Δ9)], the Ki on LYR3 was 79 nM.

Turning to `CCCCCC/C=C\CCCCCCCC(=O)N[C@H]1[C@H](O[C@H]2[C@H](O)[C@@H](NC(C)=O)[C@H](O[C@H]3[C@H](O)[C@@H](NC(C)=O)[C@H](O[C@H]4[C@H](O)[C@@H](NC(C)=O)[C@H](O[C@H]5[C@H](O)[C@@H](NC(C)=O)C(O)O[C@@H]5CO)O[C@@H]4CO)O[C@@H]3CO)O[C@@H]2CO)O[C@H](CO)[C@@H](O)[C@@H]1O` (stereo partly drawn) [LCO-V(C16:1Δ9)], on LYR3, the Ki was 4.3 nM and the “affinity / competition for binding to LYR3 (in words)” value (shortened to “affinity / competition for binding”) is recorded as “slightly higher”.

Take `CCCCCC/C=C\CCCCC/C=C/C(=O)N[C@H]1[C@H](O[C@H]2[C@H](O)[C@@H](NC(C)=O)[C@H](O[C@H]3[C@H](O)[C@@H](NC(C)=O)[C@H](O[C@H]4[C@H](O)[C@@H](NC(C)=O)C(O)O[C@@H]4CO)O[C@@H]3CO)O[C@@H]2CO)O[C@H](CO)[C@@H](O)[C@@H]1O` (stereo partly drawn) [LCO-IV(C16:2Δ2, 9)]: on LYR3, the Ki was 30 nM.

On to `CC(=O)N[C@H]1[C@H](O[C@H]2[C@H](O)[C@@H](NC(C)=O)[C@H](O[C@H]3[C@H](O)[C@@H](NC(C)=O)C(O)O[C@@H]3CO)O[C@@H]2CO)O[C@H](CO)[C@@H](O[C@@H]2O[C@H](CO)[C@@H](O[C@@H]3O[C@H](CO)[C@@H](O[C@@H]4O[C@H](CO)[C@@H](O)[C@H](O)[C@H]4NC(C)=O)[C@H](O)[C@H]3NC(C)=O)[C@H](O)[C@H]2NC(C)=O)[C@@H]1O` (stereo partly drawn) [CO-VI], for which the Ki on LYR3 worked out at 1200 nM.

For `CCCCCC/C=C\CCCCCCCC(=O)N[C@H]1[C@H](O[C@H]2[C@H](O)[C@@H](NC(C)=O)[C@H](O[C@H]3[C@H](O)[C@@H](NC(C)=O)[C@H](O[C@H]4[C@H](O)[C@@H](NC(C)=O)C(O)O[C@@H]4COS(=O)(=O)O)O[C@@H]3CO)O[C@@H]2CO)O[C@H](CO)[C@@H](O)[C@@H]1O` (stereo partly drawn) [LCO-IV(S, C16:1Δ9)], on LYR3, the Ki is 21 nM.

On to `CCCCCCCCCCCCCCCC(=O)N[C@H]1[C@H](O[C@H]2[C@H](O)[C@@H](NC(C)=O)[C@H](O[C@H]3[C@H](O)[C@@H](NC(C)=O)[C@H](O[C@H]4[C@H](O)[C@@H](NC(C)=O)C(O)O[C@@H]4COS(=O)(=O)O)O[C@@H]3CO)O[C@@H]2CO)O[C@H](CO)[C@@H](O)[C@@H]1O` (stereo partly drawn) [LCO-IV(S, C16:0)], for which the inhibition constant (Ki) is 26 nM at LYR3; 24 nM on PsLYR3; 32 nM on GmLYR3-11; 11 nM on LjLYS12; 17 nM at PvLYR3; 18 nM at GmLYR3-1.

As to `CCCCCCCC/C=C\CCCCCCCC(=O)N[C@H]1[C@H](O[C@H]2[C@H](O)[C@@H](NC(C)=O)[C@H](O[C@H]3[C@H](O)[C@@H](NC(C)=O)[C@H](O[C@H]4[C@H](O)[C@@H](NC(C)=O)C(O)O[C@@H]4CO)O[C@@H]3CO)O[C@@H]2CO)O[C@H](CO)[C@@H](O)[C@@H]1O` (stereo partly drawn) [LCO-IV(C18:1Δ9)], the “binding of the radiolabeled photoactivatable ligand to the 100 kDa polypeptide in presence of excess competitor” value in assay [1] is listed as “inhibited”. In addition, the inhibition constant (Ki) on LYR3 came to 22 nM.

Turning to `CCCCCCCC/C=C\CCCCC/C=C/C(=O)N[C@H]1[C@H](O[C@H]2[C@H](O)[C@@H](NC(C)=O)[C@H](O[C@H]3[C@H](O)[C@@H](NC(C)=O)[C@H](O[C@H]4[C@H](O)[C@@H](NC(C)=O)C(O)O[C@@H]4COS(=O)(=O)O)O[C@@H]3CO)O[C@@H]2CO)O[C@H](CO)[C@@H](O)[C@@H]1O` (stereo partly drawn) [LCO-IV(S, C18:2Δ2, 9)], at LYR3, the Ki is 7 nM.

For peptidoglycan, at LYR3, the “affinity / competition for binding” value is “no competition”.

Take `CCCCCCCCCCCCCCCC(=O)N[C@H]1[C@H](O[C@H]2[C@H](O)[C@@H](NC(C)=O)[C@H](O[C@H]3[C@H](O)[C@@H](NC(C)=O)[C@H](O[C@H]4[C@H](O)[C@@H](NC(C)=O)C(O)O[C@@H]4CO)O[C@@H]3CO)O[C@@H]2CO)O[C@H](CO)[C@@H](O)[C@@H]1O` (stereo partly drawn) [LCO-IV(C16:0)]: the inhibition constant (Ki) on LYR3 is 15 nM; at PsLYR3 it was 50 nM; at GmLYR3-11, 140 nM; on LjLYS12, 42 nM; on PvLYR3, 23 nM; at GmLYR3-1, 70 nM.

Take `CCCCCC/C=C\CCCCC/C=C/C(=O)N[C@H]1[C@H](O[C@H]2[C@H](O)[C@@H](NC(C)=O)[C@H](O[C@H]3[C@H](O)[C@@H](NC(C)=O)[C@H](O[C@H]4[C@H](O)[C@@H](NC(C)=O)C(O)O[C@@H]4COS(=O)(=O)O)O[C@@H]3CO)O[C@@H]2CO)O[C@H](CO)[C@@H](O)[C@@H]1O` (stereo partly drawn) [LCO-IV(S, C16:2Δ2, 9)]: the “binding of the radiolabeled photoactivatable ligand to the 100 kDa polypeptide in presence of excess competitor” value in assay [1] is recorded as “completely abolished”. Moreover, the dissociation constant (Kd) at PsLYR3 (read-out: Affinity (Kd)) is 31 nM; on GmLYR3-11 (read-out: Affinity (Kd)), 64 nM; at LjLYS12 (read-out: Affinity (Kd)) it was 33 nM; on PvLYR3 (read-out: Affinity (Kd)) it was 40 nM; at GmLYR3-1 (read-out: Affinity (Kd)), 32 nM.

As to `CCCCCC/C=C\CCCCCCCC(=O)N[C@H]1[C@H](O[C@H]2[C@H](O)[C@@H](NC(C)=O)C(O)O[C@@H]2CO)O[C@H](CO)[C@@H](O)[C@@H]1O` (stereo partly drawn) [LCO-II(C16:1Δ9)], at LYR3, the inhibition constant Ki was more than 5000 nM and the “affinity / competition for binding” value is given as “very low”.
